The test relates to P. falciparum 3D7 growth, pLDH absorbance. The test can be described thus: P. falciparum 3D7 growth inhibition, dose response, strain 3D7 (AID 2305).

This passage reports IC50 results from PubChem BioAssay AID2305 (GlaxoSmithKline (GSK), 2010).

For orientation: IC50 means the point on the concentration scale where inhibition reaches its midpoint. For the molecule `C=C(C)CSc1nc2c(c(=O)n1CCc1ccccc1)C1(CCCC1)Cc1ccccc1-2`, the IC50 is 610 nM.

As for `CC(=O)N(C)/N=C/[C@H](CCc1ccccc1)NC(=O)[C@H](CC(C)C)NC(=O)c1cccc(OCCN2CCOCC2)c1`, the IC50 is 330 nM. Compared with the last molecule, the IC50 is about 1.8-fold lower. In turn, `CN(C)c1ccc(Br)c(Br)c1` returned an IC50 of 970 nM. On to `Clc1cccc(Cl)c1CCNCC1CCN(CC2CCCCC2)CC1`, for which the IC50 was determined as 210 nM.

Regarding `CCOc1ccc(NC(=O)c2cn3nc(-c4ccc(OCC)cc4)cc3nc2C2CCNCC2)cc1`, the IC50 was 510 nM. In the case of `C=C[C@@H]1CN2CC[C@H]1C[C@H]2[C@H](O)c1cc(-c2ccc(Cl)cc2)nc2ccc(OC)cc12` it was 30 nM. Molecule `O=C(NC(=O)c1ccccc1O)c1ccccc1O` registered an IC50 of 700 nM.

Molecule `CCN(CC)c1ccc(C(=O)Cn2ccc(=N)cc2)cc1` showed an IC50 of 1000 nM. The IC50 values of the last two molecules are within 1.5-fold of each other. With `CC(C)Cn1c2ccccc2c2nc3nc(N)nc(N)c3nc21`, the IC50 came to 720 nM.

For `CC(C)(C)OC(=O)NCc1ccc(Nc2nnc(-c3cccc(OCC(=O)NCc4cc(C(F)(F)F)cc(C(F)(F)F)c4)c3)o2)cc1`, the IC50 worked out at 830 nM. In the case of `COc1cccc(C23N=C(Nc4nc5ccccc5[nH]4)NC2(c2cccc(OC)c2)NC(Nc2nc4ccccc4[nH]2)=N3)c1` (stereo not drawn) it was 160 nM. The molecule `C[C@H](Nc1nc(C(Oc2ccccc2)c2ccccc2)nc2[nH]ncc12)c1ccccc1` (stereo partly drawn) registered an IC50 of 480 nM.

In the case of `O=C(NCCCN1CCN(c2cccc(Cl)c2)CC1)c1ccc(-c2nc3cc(Cl)c(Cl)cc3[nH]2)cc1`, the IC50 is 700 nM. Under `COc1ccc(CCN(C)CCCCc2ccc(NC(=O)c3cccc4c(=O)c5cc(F)ccc5sc34)cc2)cc1OC` stands 900 nM; under `CN1CCN(CCCN(Cc2ccc(-c3cccc(CNCc4ccc5c(c4)OCO5)c3)cc2)C(=O)CCC2CCCC2)CC1`, 1010 nM. In the case of `Cc1noc(C)c1-c1ccc2c(Nc3ccc(C(F)(F)F)cc3)c(C(N)=O)cnc2c1` it was 320 nM; in that of `CCCCCCCCNCCCSCCCNCCCCCCCC`, 1230 nM; in that of `Nc1cc(C(F)(F)F)ccc1Cl`, 740 nM. Under `FC(F)(F)c1ccc2nccc(NN=CC=Cc3ccccc3)c2c1` stands 1020 nM; under `COc1ccc(NC(=O)CCNc2cc(C)nc(NCc3ccccc3C)n2)cc1`, 1070 nM; under `O=C(C=Cc1ccc(Cl)c(Cl)c1)NCCCCCN1CCC(CCNS(=O)(=O)c2ccc(Br)cc2)CC1`, 1120 nM.

For the molecule `O=C(NCc1cccc(F)c1)Nc1cccc(-c2ccc(-c3nc4ccc(F)cc4[nH]3)cc2)c1`, the IC50 was determined as 1050 nM. In the case of `Cc1[nH]c(C)c(-c2ccc(Cl)cc2Cl)c(=O)c1Br` it was 1010 nM; in that of `O=C(c1ccc(-c2cccc(-c3nc4ccc(C(F)(F)F)cc4[nH]3)c2)cc1)N1CCCCC1CN1CCC(O)C1` (stereo not drawn), 650 nM. In the case of `O=c1cc(NCCCNC2CCOc3c(Cl)cccc32)[nH]c2ccccc12` (stereo not drawn) it was 830 nM; in that of `COc1cc(-c2cc3cc(Cl)c(Cl)cc3[nH]2)ccc1C(=O)NCCC1CCCN1C` (stereo not drawn), 970 nM. In the case of `CC(C)=CCc1c(-c2ccc(O)cc2O)oc2c3c(cc(O)c2c1=O)OC(C)(C)C=C3` it was 980 nM; in that of `Cc1[nH]c2ccccc2c1C1CCN(CC2CCC(NC(=O)/C=C/c3ccc(Cl)c(Cl)c3)CC2)CC1` (stereo not drawn), 820 nM. `COc1ccccc1-n1ccnc1SCC(=O)Nc1cc(C(F)(F)F)ccc1Cl` showed an IC50 of 10 nM. In the case of `CC(C)NCc1cccc(-c2ccc(-c3nc4ccccc4[nH]3)cc2)c1` it was 760 nM; in that of `O=c1cc(NCCCNCc2sc(Br)c(Br)c2Br)[nH]c2ccccc12`, 1010 nM; in that of `COc1cccc(C(=O)NCCOc2ccccc2)c1Oc1ccccc1`, 920 nM.

Molecule `Cc1cccc2[nH]c(-c3ccc(-c4cccc(NC(=O)C(C)CN(C)C)c4)s3)nc12` (stereo not drawn) came in with an IC50 of 720 nM. In the case of `c1ccc(OCCCCN2CCCCC2)cc1` it was 540 nM. In the case of `CCOc1ccccc1C=CC(=O)Nc1ccc2nc(N3CCN(C)CC3)cc(C)c2c1` it was 270 nM; in that of `Cc1cccc(Nc2nc(C)cc(N3CCCN(CC4CCCCC4)CC3)n2)c1`, 1120 nM; in that of `Cc1cc(F)ccc1[C@H]1CNCCN1C(=O)N(C)C(C)(C)c1cc(C(F)(F)F)cc(C(F)(F)F)c1`, 590 nM. On to `Cc1cccc2[nH]c(-c3ccc(-c4ccc(NC(=O)Nc5ccsc5)cc4)s3)nc12`, for which the IC50 is 110 nM. Under `CC(C)CCN1CCCN(Cc2ccc(C(=O)Nc3ccc(C(C)(C)C)cc3)cc2)CC1` stands 870 nM; under `FC(F)(F)c1ccc2nc(-c3ccc(-c4cccc(CNCCc5cccnc5)c4)s3)[nH]c2c1`, 170 nM; under `Cc1cc(OCCCN2CCC(NS(=O)(=O)c3cc(Br)c(Cl)s3)CC2)c2ccccc2n1`, 850 nM.

In the case of `CN(Cc1cccc(O)c1)C1CCN(c2cc(NC(=O)c3ccc(F)cc3)ccn2)CC1`, the IC50 turned out to be 960 nM. Under `CC(=O)Nc1cccc(-c2cnc(N)c3cc(-c4ccc5c(c4)OCO5)ccc23)c1` stands 490 nM. `CC(C)c1sc(N2CCN(C)CC2)nc1C(=O)Nc1ccc(F)cc1C(F)(F)F` displayed a half-maximal inhibitory concentration (IC50) of 190 nM.

For `Cc1cc(Nc2ccncc2)n2nc(C)c(-c3ccccc3Cl)c2n1`, the IC50 amounted to 650 nM.

The molecule `CCCc1c(C(=O)NC2CCC(CN3CCC(c4c[nH]c5ccccc45)CC3)CC2)cnn1-c1c(Cl)cc(Cl)cc1Cl` (stereo not drawn) yielded an IC50 of 820 nM. In the case of `CN(C)C(C)(C)CN(Cc1ccc(-c2ccc(C(F)(F)F)cc2)cc1)C(=O)Cn1c(CCc2cccc(F)c2F)nc(=O)c2ccccc21` it was 830 nM; in that of `COc1ccccc1CCC(C)(C)NC(=O)CC(CCc1ccccc1)Nc1ccc(C#N)c2ccccc12` (stereo not drawn), 920 nM; in that of `COc1cc(CCNc2nc(NCc3ccccc3-c3ccccc3)nc(N3CCC(N)CC3)n2)ccc1O`, 820 nM.

For `CS(=O)(=O)NCCCNCc1ccc(-c2cccc(-c3nc4ccc(F)cc4[nH]3)c2)cc1`, the IC50 was determined as 800 nM. `O=C(CSc1nn(-c2ccccc2)c(=S)s1)c1c[nH]c2ccccc12` had an IC50 of 1090 nM. As to `CCCNCc1ccc(-c2ccc(CN(CCOC)C(=O)c3ccccc3)cc2)nc1`, the IC50 amounted to 880 nM. Under `c1cc(CNC2CCN(CC3CCCCC3)CC2)cc(-n2ccnc2)c1` stands 650 nM; under `CC(Nc1ccnc2cc(Cl)ccc12)c1ccc(S(N)(=O)=O)cc1` (stereo not drawn), 930 nM. In the case of `O=C(Nc1ccc(N2CCN(Cc3ccccc3Cl)CC2)cc1)c1ccc([N+](=O)[O-])o1` it was 970 nM; in that of `O=C(COc1ccc(Cl)c(Cl)c1)NCCCCCN1CCCN(C(=O)Nc2ccc(Cl)c(Cl)c2)CC1`, 1730 nM.

`COc1ccc2nccc([C@@H](O)CN3CCC(NCc4[nH]c5ccccc5c4F)CC3)c2c1`: the IC50 is 250 nM. As to `COc1ccccc1C1CCN(C2CCC(NC(=O)/C=C/c3cc(F)c(F)cc3F)CC2)CC1` (stereo not drawn), the IC50 came to 1600 nM. In the case of `CO/C(=C\C=C\c1cc2cc(Cl)c(Cl)cc2[nH]1)C(=O)NCCCN1CCCC[C@H]1C` it was 790 nM; in that of `CSc1ccccc1NC(=S)NC1CCN(CCCCCNC(=O)/C=C/c2ccc(Cl)c(Cl)c2)CC1`, 780 nM; in that of `CCOC(=O)c1c[nH]c2c(sc3cc(OC)ccc32)c1=O`, 390 nM.

Take `Cc1cc(-c2cc(Cl)ccc2Cl)no1`: the IC50 was 170 nM. `O=C(Nc1ccc(F)c(F)c1)c1ccc(CN2CCCN(Cc3cccc(F)c3)CC2)cc1` showed an IC50 of 1120 nM. In the case of `COc1cccc(CNc2ncc(-c3ccsc3)c(-c3nccs3)n2)c1` it was 420 nM; in that of `O=S(=O)(NCCN1CCCC1)c1ccc(-c2ccc(CN3Cc4ccccc4C3)cc2)s1`, 930 nM; in that of `Oc1ccc(CCNc2nc(NCCCOc3ccccc3-c3cccc(C(F)(F)F)c3)nc(N3CCNCC3)n2)cc1`, 880 nM.

The molecule `Cc1nc(NCCc2cnc[nH]2)cc(NCc2ccccc2)n1` displayed an IC50 of 830 nM. Consider `CN1CCC(N2CCN(Cc3ccc(-c4cccc(-c5nc6ccccc6[nH]5)c4)cc3)CC2)CC1`, for which the IC50 came out at 140 nM. On to `CCCCCCCC1CC(CC(=O)Nc2ccnc3ccc(OC)cc23)CN1C(=O)OC(C)(C)C` (stereo not drawn), for which the IC50 was determined as 710 nM. In the case of `O=[N+]([O-])c1ccccc1C=NNc1ccnc2cc(Cl)ccc12` it was 880 nM. In the case of `COc1ccccc1CCN1CCC(CN(C)Cc2ccc(O)c(Cl)c2)CC1` it was 330 nM; in that of `COc1cc2nc(N3CCC(CNC(=O)c4ccc(C(C)=O)cc4)CC3)nc(N)c2cc1OC`, 1120 nM. Molecule `Cc1cc(N(C)CCN(C)C)nc(Nc2ccc(Br)cc2)n1` had an IC50 of 800 nM.

Consider `CCCCc1ccc(C(=O)NC2CCN(C[C@H](O)c3ccnc4ccc(OC)cc34)CC2)cc1`, for which the IC50 was found to be 730 nM. This IC50 and that of the molecule before are within 1.5-fold of each other. In the case of `Cc1[nH]c2cc(Cl)ccc2c1C1=CCN(CCCCC2(C)C(=O)Nc3c(F)cccc32)CC1` (stereo not drawn), the IC50 was 840 nM. Under `CN1CCCN(Cc2ccc(-c3cccc(NC(=O)c4cccc(Cl)c4)c3)cc2)CC1` stands 840 nM; under `CC(C)N1CCC(N(Cc2ccc(-c3ccc(C(F)(F)F)cc3)cc2)C(=O)Cn2c(SCc3cccc(F)c3F)nc(=O)c3ccccc32)CC1`, 1050 nM.

For `Cc1ccccc1C1CCN(C2CCC(NC(=O)/C=C/c3cccc(F)c3F)CC2)CC1` (stereo not drawn), the IC50 worked out at 1150 nM. Under `O=C(Nc1ccc(Cl)cc1)Nc1cccc(-c2ccc(-c3nc4ccccc4[nH]3)cc2)c1` stands 930 nM; under `CNC(=O)c1cc(S(=O)(=O)N2CCN(c3ccccn3)CC2)cs1`, 670 nM. On to `CNc1ccc(CNCc2ccc(-c3ccc(-c4nc5ccc(F)cc5[nH]4)cc3)cc2)cc1`, for which the IC50 is 210 nM. In the case of `O=C(Cn1c2ccccc2c(=O)c2ccc(Cl)cc21)Nc1ccc(C(F)(F)F)cc1` it was 530 nM; in that of `CCOc1ccc2c(NN=Cc3ccccc3F)cc(C)nc2c1`, 680 nM; in that of `Cc1cc(NN=Cc2ccccc2Cl)c2ccc(F)cc2n1`, 260 nM. In the case of `O=C(NCCCCNCC(Cc1cccc(O)c1)c1ccccc1)c1ccc(NC(=O)c2ccc(Cl)cc2)cc1` (stereo not drawn) it was 1040 nM. `Cc1ccc(Nc2nc(NN=Cc3cc4c(cc3Br)OCO4)nc(Nc3ccc([N+](=O)[O-])cc3)n2)cc1C` yielded an IC50 of 750 nM.

In turn, `CCCNC(=O)C1Cc2c([nH]c3ccc(Br)cc23)C2(CCN(CCc3ccccc3)CC2)N1` (stereo not drawn) came in with an IC50 of 680 nM. This IC50 and that of the molecule before are within 1.5-fold of each other. In the case of `Cn1nccc1C(=O)NCCNCc1ccc(-c2cccc(-c3nc4ccc(C(F)(F)F)cc4[nH]3)c2)cc1` it was 120 nM.
